The text below walks through data of ChEMBL document CHEMBL1201862, “PubChem BioAssay data set” (2004).

Structures are written as SMILES. Active and inactive are the calls of the source. For most assays here, no stated cut-off is given here; in the data, actives have a measured EC50 and inactives only a lower limit.

The nature of test [1]: Luminescence Cell-Based Dose Response HTS to Identify Inhibitors of 5'UTR Stem-Loop Driven Prion Protein mRNA Translation in H4 Neuroglioblastoma Cells. [Related pubchem assays: 1827 (Project Summary), 1813 (Primary HTS)]. Format: functional.
Test [2] is described as follows: luciferase reporter signal suppression in cells – H4 neuroglioma cells, luminescence, dose response (AID 1990). Format: functional, cell-based. In general terms: Reporter assays use an easily measured gene product as a stand-in for the process of interest.
A short description of test [3]: alpha-synuclein stem-loop luciferase translation blockers – H4 neuroglioma cells, luminescence, confirmation (AID 1988). Type of test: functional, cell-based.
Test [4] has as its system H9c2. In words: cells. The conditions noted are these: Rattus norvegicus, H9c2, Myocardium. Type of test: functional, cell-based.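 Further: confirmatory concentration-response retest of ultra-high-throughput screening hits for modulation of myocardial damage; cell death induced by hydrogen peroxide oxidative stress; compound pretreatment for 60 min then peroxide exposure for 2 h; potency is for protecting the cells against peroxide damage rather than for killing them.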
Test [5] can be described thus: NIH3T3 cell viability loss – ATP luminescence, mouse fibroblasts, counter-screen, dose response (AID 2010).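 Further: cells exposed to compound for about 90 hours before reading.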 Format: functional, cell-based. On the technique in general: The purpose of a counterscreen is to sort out artefacts and off-target activity.
In test [6] the target is T1, High affinity choline transporter 1 (Homo sapiens, UniProt Q9GZV3).
T1 sequence (Q9GZV3 whole entry): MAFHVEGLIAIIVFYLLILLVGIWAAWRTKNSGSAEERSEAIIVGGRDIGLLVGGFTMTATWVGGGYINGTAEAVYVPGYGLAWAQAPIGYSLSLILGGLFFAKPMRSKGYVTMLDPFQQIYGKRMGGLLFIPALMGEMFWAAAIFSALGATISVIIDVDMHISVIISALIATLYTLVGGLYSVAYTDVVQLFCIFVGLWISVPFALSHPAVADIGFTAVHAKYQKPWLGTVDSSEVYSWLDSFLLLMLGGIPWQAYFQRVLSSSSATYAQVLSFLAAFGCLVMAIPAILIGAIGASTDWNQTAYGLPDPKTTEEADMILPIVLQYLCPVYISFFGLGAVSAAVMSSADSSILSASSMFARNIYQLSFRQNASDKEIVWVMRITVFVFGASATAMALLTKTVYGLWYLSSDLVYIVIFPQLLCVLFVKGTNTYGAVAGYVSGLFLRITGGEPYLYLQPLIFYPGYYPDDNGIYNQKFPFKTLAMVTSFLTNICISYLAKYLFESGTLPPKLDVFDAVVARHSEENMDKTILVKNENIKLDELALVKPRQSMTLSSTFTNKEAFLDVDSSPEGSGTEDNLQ
Put plainly: human choline transporter blockers, potency – cell-based, 5-point CRC, membrane potential dye, dose response (AID 504840). Format: functional.

Test [7] can be described thus: Trypanosoma cruzi growth suppression in host cells – NIH3T3 host cells, beta-gal luminescence, confirmation (AID 2044).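 Further: intracellular parasites grown in NIH/3T3 mouse fibroblasts as host cells; luminescent beta-galactosidase reporter signal from transgenic T. cruzi replicating inside host cells; inhibitors lower the luminescence signal.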 Format: functional, cell-based.
The target in test [8] is T2, Heat shock factor protein 1 (Mus musculus, UniProt P38532).
T2 sequence (P38532 whole entry): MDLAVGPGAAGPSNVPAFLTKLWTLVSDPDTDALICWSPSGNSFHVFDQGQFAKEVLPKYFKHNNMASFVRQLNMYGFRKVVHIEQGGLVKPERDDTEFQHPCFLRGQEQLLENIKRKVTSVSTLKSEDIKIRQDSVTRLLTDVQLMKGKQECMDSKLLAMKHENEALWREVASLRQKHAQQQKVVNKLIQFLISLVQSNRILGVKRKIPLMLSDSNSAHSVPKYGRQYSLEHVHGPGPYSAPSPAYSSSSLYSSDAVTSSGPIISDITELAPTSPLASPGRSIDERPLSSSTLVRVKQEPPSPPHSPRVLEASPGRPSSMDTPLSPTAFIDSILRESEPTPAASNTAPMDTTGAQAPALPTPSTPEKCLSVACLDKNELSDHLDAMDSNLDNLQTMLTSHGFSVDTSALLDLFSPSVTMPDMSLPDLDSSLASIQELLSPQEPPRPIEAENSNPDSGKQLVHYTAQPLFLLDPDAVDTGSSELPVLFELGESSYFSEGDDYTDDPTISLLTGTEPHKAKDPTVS
Put plainly: decrease of HSF1-responsive luciferase luminescence – cell-based, NIH3T3, dose retest, confirmation (AID 2382).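 Further: NIH3T3 fibroblasts with HSF1-driven luciferase reporter stressed by proteasome inhibitor MG132; luminescence from HSF1-driven luciferase expression after 8 hours of MG132 stress.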 Type of test: functional.

In test [9] the target is T3, RNA-binding protein pos-1 (Caenorhabditis elegans, UniProt G5EF15).
T3 sequence (G5EF15 whole entry): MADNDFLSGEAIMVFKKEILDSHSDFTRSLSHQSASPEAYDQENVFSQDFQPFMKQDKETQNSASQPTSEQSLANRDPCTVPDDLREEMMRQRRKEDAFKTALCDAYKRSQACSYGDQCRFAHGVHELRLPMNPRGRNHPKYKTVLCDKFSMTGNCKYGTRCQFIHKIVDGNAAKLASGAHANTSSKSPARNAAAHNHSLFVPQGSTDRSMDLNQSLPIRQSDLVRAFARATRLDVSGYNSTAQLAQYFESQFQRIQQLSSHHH
Put plainly: disruptors of C. elegans POS-1 RNA interaction – biochemical, fluorescence polarization, dose response (AID 1964).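 Further: purified POS-1 fused to maltose binding protein made in E. coli; potency of compounds blocking POS-1 binding to fluorescent RNA.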

Test [10] deals with T4, Zinc finger protein mex-5 (Caenorhabditis elegans, UniProt Q9XUB2).
T4 sequence (Q9XUB2 whole entry): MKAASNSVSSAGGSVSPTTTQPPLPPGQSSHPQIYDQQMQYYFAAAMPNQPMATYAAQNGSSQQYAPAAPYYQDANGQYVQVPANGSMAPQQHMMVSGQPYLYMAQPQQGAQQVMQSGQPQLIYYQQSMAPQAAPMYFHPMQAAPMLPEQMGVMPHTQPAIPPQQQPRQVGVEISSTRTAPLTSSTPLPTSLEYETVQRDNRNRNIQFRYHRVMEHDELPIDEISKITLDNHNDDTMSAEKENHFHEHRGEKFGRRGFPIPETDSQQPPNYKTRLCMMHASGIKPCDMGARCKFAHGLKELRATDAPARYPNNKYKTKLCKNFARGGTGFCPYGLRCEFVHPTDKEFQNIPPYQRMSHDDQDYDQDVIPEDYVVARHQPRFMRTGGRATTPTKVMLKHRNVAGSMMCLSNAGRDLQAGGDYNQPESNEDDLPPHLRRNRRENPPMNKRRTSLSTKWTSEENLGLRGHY
Put plainly: potency of MEX-5 RNA-binding blockers – biochemical, C. elegans, fluorescence polarization, dose response (AID 1960). (In fluorescence polarisation assays a small probe gives low polarisation when free and higher when bound to something large.)

Test [11] in a line: blockers of HIV-1 ZM109 envelope-driven cell-cell fusion – HeLa effector, CEM target cells, luciferase, cherry-pick, dose response (AID 652058).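 Further: luciferase signal from HIV-1 Env mediated cell-cell fusion of effector and target cells.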 Type of test: functional, cell-based.
The nature of test [12]: HIV-1 AD8 envelope cell-cell fusion blockers – cherry-pick, dose response (AID 652062).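 Further: luciferase signal from cell-cell fusion driven by HIV-1 clade B AD8 Env; potency is for inhibitors of fusion seen as a drop in luminescence.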 Format: functional, cell-based.
Test [13] is described as follows: blockers of HIV-1 envelope-mediated cell-cell fusion – cherry-pick, dose response (AID 652057). Type of test: functional, cell-based.
Test [14] concerns Streptococcus sp. 'group A'. In words: Streptococcus pyogenes SK(-)GAS viability under kanamycin – luminescence, BacTiterGlo, confirmation, counter-screen for streptokinase expression inhibitor project, dose response (AID 1900). Format: functional, organism-based.
Test [15] concerns the target Genome polyprotein (dengue virus type 2, UniProt P29990). Put plainly: flavivirus cap methylation enzyme inhibition – biochemical, confirmation dose response, primary screen (AID 588689). Type of test: functional.
The subject of test [16] is Streptococcus. In words: GAS UMAA2166 growth inhibition – luminescence, BacTiterGlo, counter-screen for streptokinase expression inhibitor project, dose response (AID 1915).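 Further: potency for reduction of bacterial viability or growth.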 Type of test: functional, organism-based.
Test [17] is described as follows: microbe, parasite or virus in culture. Format: functional. The following applies: Mycobacterium tuberculosis.
Test [18] has as its target T5, Ubiquitin-conjugating enzyme E2 N (Homo sapiens, UniProt P61088).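 Further: Dose-response confirmation in a TR-FRET assay detecting UBC13-driven polyubiquitin chain formation, inhibition measured.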
T5 sequence (P61088 whole entry): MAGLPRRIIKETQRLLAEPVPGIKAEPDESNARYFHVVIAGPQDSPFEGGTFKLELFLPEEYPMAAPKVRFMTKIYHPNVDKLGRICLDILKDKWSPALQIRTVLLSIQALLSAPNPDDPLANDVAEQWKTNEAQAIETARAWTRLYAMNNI
Type of test: functional.

Chain of Genome polyprotein (P29990 2492-3391 limits assumed): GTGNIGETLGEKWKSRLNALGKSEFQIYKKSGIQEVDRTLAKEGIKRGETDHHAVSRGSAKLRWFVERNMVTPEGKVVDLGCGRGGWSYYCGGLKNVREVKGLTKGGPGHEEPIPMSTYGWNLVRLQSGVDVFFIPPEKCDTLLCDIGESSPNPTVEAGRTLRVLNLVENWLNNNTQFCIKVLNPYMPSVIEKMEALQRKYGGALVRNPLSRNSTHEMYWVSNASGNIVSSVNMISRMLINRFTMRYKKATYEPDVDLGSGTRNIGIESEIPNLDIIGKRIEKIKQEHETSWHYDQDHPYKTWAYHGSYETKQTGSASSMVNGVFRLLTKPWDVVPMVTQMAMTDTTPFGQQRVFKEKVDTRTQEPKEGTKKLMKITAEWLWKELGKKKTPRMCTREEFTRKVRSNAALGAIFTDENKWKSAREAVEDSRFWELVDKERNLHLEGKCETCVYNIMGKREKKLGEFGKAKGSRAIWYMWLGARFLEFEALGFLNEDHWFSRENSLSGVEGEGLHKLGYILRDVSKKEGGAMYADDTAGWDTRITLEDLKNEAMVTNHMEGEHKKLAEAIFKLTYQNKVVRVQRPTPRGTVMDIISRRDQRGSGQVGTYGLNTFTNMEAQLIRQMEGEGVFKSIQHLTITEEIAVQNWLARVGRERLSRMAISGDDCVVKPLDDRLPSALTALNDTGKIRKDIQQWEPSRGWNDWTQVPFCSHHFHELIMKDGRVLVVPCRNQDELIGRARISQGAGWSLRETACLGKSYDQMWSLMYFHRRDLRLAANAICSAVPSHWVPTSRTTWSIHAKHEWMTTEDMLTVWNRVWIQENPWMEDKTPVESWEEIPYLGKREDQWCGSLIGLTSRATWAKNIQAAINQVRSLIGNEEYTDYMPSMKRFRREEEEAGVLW

As for `O=C(NCCC1=CCCCC1)C1CCC(CNc2nc(S)nc3ccccc23)CC1` (stereo not drawn), the EC50 (commonly the concentration at which the effect is half-maximal) in [1] was > 120 µM (not active); in test [2] it was 9.48 µM (active); in test [3], > 120 µM (not active).

On to `COc1ccc(NC(=O)c2cc(Cl)ccc2Cl)c([N+](=O)[O-])c1`, for which the EC50 in test [1], in [2] and in [3] was > 120 µM (not active) throughout.

For the compound `O=C(Nc1cccc2cccnc12)c1ccc2sc([C@H]3C[C@H](O)[C@@H](CO)O3)nc2c1`, the concentration for half-maximal inhibition (IC50) (usually the midpoint of a concentration-inhibition curve) in [4] was 11 µM (active).

Take `c1ccc(Sc2ccccc2CN2CCCC2)cc1`: the EC50 in test [1], in test [2] and in test [3] was > 120 µM (not active) in each case.

Turning to `CC(C)c1nnc(NC(=O)CC(=O)Nc2ccccc2C(=O)O)s1`, the half-maximal effective concentration (EC50) is 14.6 µM (active) in test [1], 16.3 µM (active) in test [2] and 11.3 µM (active) in test [3].

As for `O=C(Nc1ccc(S(=O)(=O)N2CCOCC2)cc1)c1ccc([N+](=O)[O-])cc1Cl`, the EC50 in test [5] was > 30 µM (not active); in [7] it was 0.867 µM (active). Besides, in [6], the half-maximal inhibitory concentration (IC50) is 15.1 µM (active).

Take `O=[N+]([O-])c1ccc(-c2nc(Nc3ccc(O)cc3)c3ccccc3n2)cc1`: the IC50 in [4] is > 79 µM (inactive).

Regarding `Cc1ccc(C)c(S(=O)(=O)N2CCN(C(=O)Cn3[nH]c(=O)c4ccccc4c3=O)CC2)c1`, the IC50 in [4] was > 79 µM (inactive).

With `Cc1ccc2[nH]c(O)c(N=Nc3ccccc3C)c2c1`, the half-maximal effective concentration (EC50) in test [8] is > 195 µM (not active); in test [9] it was > 300 µM (not active); in test [10], > 300 µM (not active).

As for `CC(C)NC(=O)Nc1ccc2c(c1)C(=O)N([C@@H](C)CO)C[C@@H](C)[C@@H](CN(C)C(=O)Nc1ccc(F)cc1)OCCCC[C@@H](C)O2`, the AC50 (commonly the concentration giving half of the maximal activity seen) was 5.56 µM (active) in test [11], 3.2 µM (active) in [12] and 2.79 µM (active) in test [13].

Regarding `Oc1nc(-c2cccnc2)nc2ccccc12`, the IC50 in [4] was 12.8 µM (active).

Consider `COC(=O)c1sccc1NC(=O)C1CC2CCC1C2` (stereo not drawn), for which the concentration giving a half-maximal response (EC50) in test [1], in test [2] and in test [3] was > 120 µM (not active) each time.

Consider `CC(=C/c1ccc(C(C)C)cc1)/C=N/NC(=O)c1ccncc1`, for which, in [4], the IC50 was > 79 µM (inactive).

As to `COc1ccccc1-c1ccc2c(c1)O[C@H](CN(C)S(=O)(=O)c1ccccc1)[C@H](C)CN([C@H](C)CO)S2(=O)=O`, the figures for the AC50 in test [11] and in test [13] were 51.3 µM (active) and 23.5 µM (active), respectively.

For `C[C@H]1CN([C@@H](C)CO)C(=O)c2ccccc2-c2ccccc2CO[C@H]1CN(C)Cc1ccc(F)cc1`, the concentration at half-maximal activity (AC50) in test [11] is < 0.285 µM (active); in [12] it was 0.857 µM (active); in test [13], < 0.285 µM (active).

For `CC(=O)c1ccc(-c2[nH]c3ccccc3c2CCN2C(=O)c3ccccc3C2=O)cc1`, in test [4], the IC50 is > 79 µM (inactive).

Take `Cc1ccc(N/C=C/C(=O)c2sc(-c3ccccc3)nc2C)cc1`: the EC50 was 46.4 µM (inconclusive) in test [9] and > 300 µM (not active) in test [10].

As for `COC(=O)c1sccc1NC(=O)c1ccc(C)s1`, the 50% effective concentration (EC50) in [9] and in test [10] was > 300 µM (not active) each time.

`Cc1c(C#N)c(N)nc2c3c(sc12)NC(=O)CC3c1ccc(Cl)cc1` (stereo not drawn): the IC50 in test [4] is 28.2 µM (active).

In the case of `CC1=NN(C(N)=S)C(=O)C1N=Nc1c(Br)cc(Br)cc1Br` (stereo not drawn), the IC50 in [6] is 12 µM (active); in test [15], 43.5 µM (active). For the same compound, the EC50 in [14] is 2.76 µM (active); in test [16], 8.6 µM (active).

`O=C(NNC(=O)c1ccccc1O)c1ccc(S(=O)(=O)Nc2ccccc2F)cc1`: the half-maximal effective concentration (EC50) is > 300 µM (not active) in [9] and > 300 µM (inconclusive) in test [10].

Take `CCOc1ccc2c(c1)/C(=C(\C(Cl)=C(Cl)Cl)[N+](=O)[O-])N2`: the concentration for a half-maximal effect (EC50) was 68 µM (active) in [9] and 40.3 µM (active) in [10].

With `O=[N+]([O-])c1ccc(Nc2nc(N/N=C/c3cccc(F)c3)nc(N3CCCC3)n2)cc1`, the IC50 in [4] is > 79 µM (inactive).

Take `Cc1ccccc1-n1nc2c(c1NC(=O)C1CCCC1)CS(=O)(=O)C2`: the 50% effective concentration (EC50) in [1], in test [2] and in [3] was > 120 µM (not active) each time.

For the compound `COc1ccc(NC(=S)N(Cc2cccnc2)Cc2cc3cc(OC)c(OC)cc3nc2O)cc1`, in [4], the IC50 is > 79 µM (inactive).

For `CCOC(=O)c1ccc(NC(=O)CSc2nnc(-c3cccs3)n2CC)cc1`, the concentration for a half-maximal effect (EC50) in [1], in [2] and in test [3] was > 120 µM (not active) each time.

`CCN1C(N(C)CCc2c[nH]c3ccccc23)=N[C@@H](c2cccc(C(F)(F)F)c2)C(C(=O)OC)=C1C`: the CC50 in test [17] is 14.3 µM (active). Also, in test [18], the IC50 is > 20 µM (inactive).

`COc1ccc(-c2cc(=O)oc3cc(OC(=O)C4CCCCC4)ccc23)cc1`: the IC50 in [4] is 22 µM (active).

Consider `Cc1ccc(-c2cc(-c3ccc(F)cc3)nc(N)c2C#N)o1`, for which the results for the half-maximal effective concentration (EC50) in [1], in test [2] and in test [3] were > 120 µM (not active), 17.1 µM (active) and 49.7 µM (active), respectively.

In the case of `CCOc1ccc2nc(NC(=O)C34CC5CC(CC(NC(C)=O)(C5)C3)C4)sc2c1`, the CC50 in test [17] was > 40 µM (active).
